The results in this text go back to ChEMBL document CHEMBL1135701, “Discovery of a 3-amino-6-phenyl-pyridazine derivative as a new synthetic antineuroinflammatory compound” (J Med Chem, 2002).

Molecules are shown by their SMILES.

Assay [1] addresses Ca2+/calmodulin-dependent protein kinase II (CaM kinase II) (Rattus norvegicus, UniProt P11275+P08413+P15791+P11730). Put plainly: Inhibition of Calcium/calmodulin-dependent protein kinase type II (CaMKII) activity. The format is protein assay.
The next assay concerns the target MAP kinase p38 (Homo sapiens, UniProt O15264+Q15759+Q16539+P53778). Put plainly: Inhibition of p38 Mitogen-activated protein kinase. The format is protein assay.
In assay [2] the target is Myosin light chain kinase, smooth muscle (Gallus gallus, UniProt P11799). The assay is described as follows: Inhibition of Myosin Light Chain kinase (MLCK).
For another assay, the target named is Protein kinase C (PKC). Put plainly: Inhibition of Protein kinase C (PKC) activity, Enzyme assay done using gamma-[32P]ATP and synthetic peptide substrates. Further details: species or system Rattus norvegicus.
In assay [3] the target is cAMP-dependent protein kinase A (Bos taurus, UniProt P00515+P00517+P05131+P31322). Put plainly: Inhibition of Protein kinase A (PKA) activity, Enzyme assay was done using gamma-[32P]ATP and synthetic peptide substrates. The format is protein-complex assay.

Sequence of Myosin light chain kinase, smooth muscle (P11799 whole entry): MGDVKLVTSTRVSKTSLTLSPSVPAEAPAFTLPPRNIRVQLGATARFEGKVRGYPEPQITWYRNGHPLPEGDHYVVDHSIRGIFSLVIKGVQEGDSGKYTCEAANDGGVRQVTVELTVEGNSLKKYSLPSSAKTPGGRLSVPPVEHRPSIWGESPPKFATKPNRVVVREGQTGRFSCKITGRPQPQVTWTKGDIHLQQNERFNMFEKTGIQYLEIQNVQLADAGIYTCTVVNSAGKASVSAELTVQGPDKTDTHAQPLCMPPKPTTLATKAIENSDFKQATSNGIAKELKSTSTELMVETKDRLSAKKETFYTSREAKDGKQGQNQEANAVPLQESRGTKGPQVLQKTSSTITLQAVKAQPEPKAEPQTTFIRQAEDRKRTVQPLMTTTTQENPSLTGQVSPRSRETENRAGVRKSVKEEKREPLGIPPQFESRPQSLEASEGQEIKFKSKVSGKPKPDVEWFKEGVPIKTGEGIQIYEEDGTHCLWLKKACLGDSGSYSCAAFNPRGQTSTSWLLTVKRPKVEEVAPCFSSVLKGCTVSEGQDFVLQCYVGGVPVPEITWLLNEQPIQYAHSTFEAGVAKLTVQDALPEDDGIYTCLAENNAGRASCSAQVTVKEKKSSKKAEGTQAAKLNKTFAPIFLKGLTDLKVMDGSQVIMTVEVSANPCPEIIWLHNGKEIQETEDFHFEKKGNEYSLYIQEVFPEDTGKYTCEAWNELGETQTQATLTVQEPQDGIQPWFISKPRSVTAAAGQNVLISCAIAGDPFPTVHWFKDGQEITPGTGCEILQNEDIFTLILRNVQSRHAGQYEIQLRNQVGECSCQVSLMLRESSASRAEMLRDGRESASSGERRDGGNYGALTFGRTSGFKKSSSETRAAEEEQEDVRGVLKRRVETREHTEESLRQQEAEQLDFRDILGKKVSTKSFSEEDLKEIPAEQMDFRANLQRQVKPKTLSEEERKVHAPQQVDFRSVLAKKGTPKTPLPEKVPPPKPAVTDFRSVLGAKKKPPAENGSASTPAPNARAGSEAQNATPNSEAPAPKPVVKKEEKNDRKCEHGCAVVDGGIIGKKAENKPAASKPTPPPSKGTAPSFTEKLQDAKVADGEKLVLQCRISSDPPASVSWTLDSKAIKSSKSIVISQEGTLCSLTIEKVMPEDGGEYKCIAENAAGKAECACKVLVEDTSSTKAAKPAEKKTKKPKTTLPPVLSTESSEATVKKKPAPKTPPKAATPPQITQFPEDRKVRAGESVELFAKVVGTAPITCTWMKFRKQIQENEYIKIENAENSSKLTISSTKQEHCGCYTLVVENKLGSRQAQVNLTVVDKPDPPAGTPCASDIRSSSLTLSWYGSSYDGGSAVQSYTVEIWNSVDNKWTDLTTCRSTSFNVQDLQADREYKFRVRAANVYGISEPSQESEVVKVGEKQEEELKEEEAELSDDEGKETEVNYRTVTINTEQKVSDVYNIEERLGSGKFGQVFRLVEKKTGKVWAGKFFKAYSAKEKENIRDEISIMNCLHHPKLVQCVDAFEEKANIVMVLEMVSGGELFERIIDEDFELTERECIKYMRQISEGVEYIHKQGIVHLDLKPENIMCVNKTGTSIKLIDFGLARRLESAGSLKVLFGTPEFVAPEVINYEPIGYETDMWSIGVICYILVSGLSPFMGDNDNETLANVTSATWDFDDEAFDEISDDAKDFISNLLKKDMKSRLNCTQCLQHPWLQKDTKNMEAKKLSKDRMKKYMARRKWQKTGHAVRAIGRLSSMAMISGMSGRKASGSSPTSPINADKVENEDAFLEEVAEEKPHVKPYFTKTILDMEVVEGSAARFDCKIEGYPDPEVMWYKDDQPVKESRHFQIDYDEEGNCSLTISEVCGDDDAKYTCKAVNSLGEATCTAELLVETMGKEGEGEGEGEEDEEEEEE

By IC50 is commonly meant the concentration needed to halve the response being measured. On to `N=c1cc2c(nn1CCCCCCCCCCC(=O)N1CCN(c3ncccn3)CC1)-c1ccccc1CC2`, for which the 50% inhibitory concentration (IC50) in assay [1] is 9.7 µM; against MAP kinase p38, over 100 µM; in assay [2], over 100 µM; against Protein kinase C (PKC) it was over 100 µM; in assay [3], over 100 µM.
For the compound `COc1ccc(S(=O)(=O)N(CCO)c2ccccc2CN(C)C/C=C/c2ccc(Cl)cc2)cc1`, the IC50 is 8.4 µM in assay [1], over 100 µM at MAP kinase p38, over 100 µM on Protein kinase C (PKC) and over 100 µM in assay [3].
